Assay results reported in article PMC9837035 (Nature Communications, 2023).
Where “and” joins values, the source holds several entries; their conditions need not be identical. Equal entries are not always repeated.

Experiment: Hematological and hepatic parameters, 2-week repeated oral dosing
Type: in vivo
Conditions: rats
[1] = RK-701 10 mg/kg for two weeks, individual animals 1-5, 10 mg/kg
[2] = RK-701 30 mg/kg for two weeks, individual animals 1-5, 30 mg/kg
[3] = RK-701 100 mg/kg for two weeks, individual animals 1-5, 100 mg/kg

## Cc1c(C(=O)NC(CCC2CC2)C(=O)Nc2ccc(C#N)cc2)[nH]c2c1C(=O)CC(C)(C)C2 (stereo not drawn) [RK-701]
[1]
  ALB: 3.3 g/dL and 3.6 g/dL and 3.5 g/dL and 3.9 g/dL
  ALP: 498 IU/L and 658 IU/L and 651 IU/L and 305 IU/L and 323 IU/L
  ALT: 35 IU/L and 24 IU/L and 23 IU/L and 29 IU/L and 31 IU/L
  AST: 65 IU/L and 68 IU/L and 63 IU/L and 58 IU/L
  EOS: 0.8 x 10^2 cells/μL and 0.5 x 10^2 cells/μL and 0.6 x 10^2 cells/μL
  HCT: 43.6% and 43.5% and 41.3% and 46.1% and 43.9%
  HGB: 15.1 g/dL and 14.9 g/dL and 14.2 g/dL and 16.2 g/dL and 15.2 g/dL
  LUC: 0.5 x 10^2 cells/μL and 0.3 x 10^2 cells/μL and 0.2 x 10^2 cells/μL and 0.6 x 10^2 cells/μL
  Lymph: 60.7 x 10^2 cells/μL and 48.8 x 10^2 cells/μL and 34.7 x 10^2 cells/μL and 52.6 x 10^2 cells/μL and 60.4 x 10^2 cells/μL
  MCH: 20.6 pg and 20.7 pg and 19.3 pg and 20.9 pg and 20.5 pg
  MCHC: 34.6 g/dL and 34.4 g/dL and 35.1 g/dL and 34.7 g/dL
  MCV: 59.5 fL and 60.2 fL and 56.2 fL and 59.6 fL and 59.1 fL
  MONO: 1 x 10^2 cells/μL and 0.9 x 10^2 cells/μL and 0.6 x 10^2 cells/μL and 1.2 x 10^2 cells/μL
  NEUT: 8.2 x 10^2 cells/μL and 4.4 x 10^2 cells/μL and 6.1 x 10^2 cells/μL and 5.2 x 10^2 cells/μL and 8.1 x 10^2 cells/μL
  PL: 141 mg/dL and 106 mg/dL and 124 mg/dL and 99 mg/dL and 133 mg/dL
  PLT: 127.6 x 10^4 cells/μL and 123.4 x 10^4 cells/μL and 117.1 x 10^4 cells/μL and 123.6 x 10^4 cells/μL and 146.5 x 10^4 cells/μL
  RBC: 732 x 10^4 cells/μL and 722 x 10^4 cells/μL and 735 x 10^4 cells/μL and 773 x 10^4 cells/μL and 743 x 10^4 cells/μL
  Retic: 223.8 x 10^9 cells/L and 153 x 10^9 cells/L and 208.3 x 10^9 cells/L and 171.7 x 10^9 cells/L and 194.5 x 10^9 cells/L
  T-CHO: 87 mg/dL and 57 mg/dL and 73 mg/dL and 64 mg/dL
  TG: 26 mg/dL and 11 mg/dL and 19 mg/dL and 14 mg/dL and 48 mg/dL
  TP: 5.8 g/dL and 6.1 g/dL and 5.9 g/dL and 6.4 g/dL
  WBC: 71.3 x 10^2 cells/μL and 55 x 10^2 cells/μL and 42.1 x 10^2 cells/μL and 59.6 x 10^2 cells/μL and 70.9 x 10^2 cells/μL
[2]
  ALB: 3.3 g/dL and 3.6 g/dL and 3.5 g/dL
  ALP: 418 IU/L and 310 IU/L and 628 IU/L and 586 IU/L and 615 IU/L
  ALT: 28 IU/L and 21 IU/L and 29 IU/L and 25 IU/L
  AST: 71 IU/L and 66 IU/L and 59 IU/L and 54 IU/L and 70 IU/L
  EOS: 0.4 x 10^2 cells/μL and 0.5 x 10^2 cells/μL and 0.7 x 10^2 cells/μL and 0.3 x 10^2 cells/μL
  HCT: 41.9% and 44.7% and 43.2% and 41.2% and 41.8%
  HGB: 13.9 g/dL and 15.2 g/dL and 14.7 g/dL and 14.2 g/dL and 14.4 g/dL
  LUC: 0.5 x 10^2 cells/μL and 0.2 x 10^2 cells/μL and 0.6 x 10^2 cells/μL and 0.4 x 10^2 cells/μL
  Lymph: 67.9 x 10^2 cells/μL and 38.8 x 10^2 cells/μL and 53.8 x 10^2 cells/μL and 52 x 10^2 cells/μL and 52.5 x 10^2 cells/μL
  MCH: 18.8 pg and 19.5 pg and 21.3 pg and 20.8 pg
  MCHC: 33.3 g/dL and 33.9 g/dL and 34.1 g/dL and 34.4 g/dL
  MCV: 56.4 fL and 57.4 fL and 62.5 fL and 56.7 fL and 60.3 fL
  MONO: 1 x 10^2 cells/μL and 0.8 x 10^2 cells/μL and 0.9 x 10^2 cells/μL
  NEUT: 5.1 x 10^2 cells/μL and 8.7 x 10^2 cells/μL and 4.3 x 10^2 cells/μL and 6.5 x 10^2 cells/μL and 8.9 x 10^2 cells/μL
  PL: 116 mg/dL and 127 mg/dL and 128 mg/dL and 100 mg/dL and 113 mg/dL
  PLT: 120.9 x 10^4 cells/μL and 129.5 x 10^4 cells/μL and 130.8 x 10^4 cells/μL and 134.3 x 10^4 cells/μL and 95.6 x 10^4 cells/μL
  RBC: 742 x 10^4 cells/μL and 779 x 10^4 cells/μL and 692 x 10^4 cells/μL and 726 x 10^4 cells/μL and 693 x 10^4 cells/μL
  Retic: 276.8 x 10^9 cells/L and 221.1 x 10^9 cells/L and 186.9 x 10^9 cells/L and 199.2 x 10^9 cells/L and 253.8 x 10^9 cells/L
  T-CHO: 63 mg/dL and 69 mg/dL and 62 mg/dL and 58 mg/dL and 68 mg/dL
  TG: 16 mg/dL and 19 mg/dL and 25 mg/dL and 12 mg/dL and 11 mg/dL
  TP: 5.7 g/dL and 6.1 g/dL and 6 g/dL and 5.8 g/dL
  WBC: 74.9 x 10^2 cells/μL and 49.1 x 10^2 cells/μL and 60.2 x 10^2 cells/μL and 60.7 x 10^2 cells/μL and 63.2 x 10^2 cells/μL
[3]
  ALB: 3.4 g/dL and 3.3 g/dL and 3.2 g/dL and 3.5 g/dL
  ALP: 450 IU/L and 547 IU/L and 566 IU/L and 866 IU/L and 399 IU/L
  ALT: 37 IU/L and 26 IU/L and 28 IU/L and 29 IU/L and 25 IU/L
  AST: 63 IU/L and 59 IU/L and 68 IU/L and 70 IU/L and 58 IU/L
  EOS: 0.3 x 10^2 cells/μL and 0.6 x 10^2 cells/μL and 0.8 x 10^2 cells/μL and 0.7 x 10^2 cells/μL
  HCT: 43.3% and 44.1% and 41.3% and 42.5% and 43.5%
  HGB: 14.8 g/dL and 15 g/dL and 14.4 g/dL and 14.6 g/dL
  LUC: 0.4 x 10^2 cells/μL and 0.5 x 10^2 cells/μL and 0.3 x 10^2 cells/μL and 0.9 x 10^2 cells/μL
  Lymph: 61.6 x 10^2 cells/μL and 55.7 x 10^2 cells/μL and 66.9 x 10^2 cells/μL and 49.9 x 10^2 cells/μL and 88.7 x 10^2 cells/μL
  MCH: 20.2 pg and 20.4 pg and 20.6 pg and 20.1 pg
  MCHC: 34.3 g/dL and 34 g/dL and 34.8 g/dL and 34.4 g/dL
  MCV: 59 fL and 60.2 fL and 59.1 fL and 58.3 fL and 58.6 fL
  MONO: 1.3 x 10^2 cells/μL and 0.7 x 10^2 cells/μL and 1.6 x 10^2 cells/μL and 1 x 10^2 cells/μL and 1.4 x 10^2 cells/μL
  NEUT: 7.8 x 10^2 cells/μL and 2.7 x 10^2 cells/μL and 9.7 x 10^2 cells/μL and 9.5 x 10^2 cells/μL and 9.3 x 10^2 cells/μL
  PL: 153 mg/dL and 118 mg/dL and 132 mg/dL and 110 mg/dL and 173 mg/dL
  PLT: 110.2 x 10^4 cells/μL and 121.4 x 10^4 cells/μL and 96 x 10^4 cells/μL and 122.9 x 10^4 cells/μL and 114.3 x 10^4 cells/μL
  RBC: 733 x 10^4 cells/μL and 700 x 10^4 cells/μL and 729 x 10^4 cells/μL and 744 x 10^4 cells/μL
  Retic: 130.2 x 10^9 cells/L and 149.9 x 10^9 cells/L and 250.7 x 10^9 cells/L and 185.7 x 10^9 cells/L and 177.3 x 10^9 cells/L
  T-CHO: 94 mg/dL and 67 mg/dL and 91 mg/dL and 72 mg/dL and 116 mg/dL
  TG: 26 mg/dL and 19 mg/dL and 9 mg/dL and 8 mg/dL and 32 mg/dL
  TP: 5.6 g/dL and 5.8 g/dL and 5.9 g/dL and 5.7 g/dL and 6.2 g/dL
  WBC: 71.5 x 10^2 cells/μL and 60.2 x 10^2 cells/μL and 79.6 x 10^2 cells/μL and 61.2 x 10^2 cells/μL and 101.3 x 10^2 cells/μL
oral, up to 100 mg/kg, two weeks
  effect on hematological and hepatic parameters: no serious effect
Two weeks, 10 mg/kg
  ALB: 3.6 ± 0.2 g/dL
  ALP: 487 ± 170 IU/L
  ALT: 28 ± 5 IU/L
  AST: 64 ± 4 IU/L
  EOS: 0.6 ± 0.1 x 102 cells/μL
  HCT: 43.7± 1.7%
  HGB: 15.1 ± 0.7 g/dL
  LUC: 0.4 ± 0.2 x 102 cells/μL
  Lymph: 51.4 ± 10.7 x 102 cells/μL
  MCH: 20.4 ± 0.6 pg
  MCHC: 34.6 ± 0.3 g/dL
  MCV: 58.9 ± 1.6 fL
  MONO: 0.9 ± 0.2 x 102 cells/μL
  NEUT: 6.4 ± 1.7 x 102 cells/μL
  PL: 121 ± 18 mg/dL
  RBC: 741 ± 19 x 104 cells/μL
  Retic: 190 ± 28.3 x 109 cells/L
  T-CHO: 68 ± 13 mg/dL
  TG: 24 ± 15 mg/dL
  TP: 6.0 ± 0.3 g/dL
  WBC: 59.8 ± 12.2 x 102 cells/μL
Two weeks, 30 mg/kg
  ALB: 3.5 ± 0.2 g/dL
  ALP: 511 ± 141 IU/L
  ALT: 26 ± 3 IU/L
  AST: 64 ± 7 IU/L
  EOS: 0.5 ± 0.1 x 102 cells/μL
  HCT: 42.6 ± 1.4%
  HGB: 14.5 ± 0.5 g/dL
  LUC: 0.4 ± 0.1 x 102 cells/μL
  Lymph: 53.0 ± 10.3 x 102 cells/μL
  MCH: 20.0 ± 1.0 pg
  MCHC: 34.0 ± 0.5 g/dL
  MCV: 58.7 ± 2.6 fL
  MONO: 0.9 ± 0.1 x 102 cells/μL
  NEUT: 6.7 ± 2.1 x 102 cells/μL
  PLT: 122 ±15.7 x 104 cells/μL
  RBC: 726 ± 36 x 104 cells/μL
  Retic: 228 ± 37.5 x 109 cells/L
  T-CHO: 64 ± 5 mg/dL
  TG: 17 ± 6 mg/dL
  TP: 5.9 ± 0.2 g/dL
  WBC: 61.6 ± 9.2 x 102 cells/μL
Two weeks, 100 mg/kg
  ALB: 3.4 ± 0.1 g/dL
  ALP: 566 ± 181 IU/L
  ALT: 29 ± 5 IU/L
  AST: 64 ± 5 IU/L
  EOS: 0.6 ± 0.2 x 102 cells/μL
  HCT: 42.9 ± 1.1%
  HGB: 14.8 ± 0.3 g/dL
  LUC: 0.5 ± 0.2 x 102 cells/μL
  Lymph: 64.6 ± 14.9 x 102 cells/μL
  MCH: 20.3 ± 0.2 pg
  MCHC: 34.4 ± 0.3 g/dL
  MCV: 59.0 ± 0.7 fL
  MONO: 1.2 ± 0.4 x 102 cells/μL
  NEUT: 7.8 ± 2.9 x 102 cells/μL
  PL: 137 ± 26 mg/dL
  Retic: 179 ± 45.9 x 109 cells/L
  T-CHO: 88 ± 20 mg/dL
  TG: 19 ± 10 mg/dL
  TP: 5.8 ± 0.2 g/dL
  WBC: 74.8 ± 16.8 x 102 cells/μL
